“And” between values parts separate entries of the source, which are not always exact repeats. Equal entries are not always repeated.
How the values were obtained:
[1] = system: normal human epidermal keratinocytes; assay: Synthesis of total glycosaminoglycans, [3H]-glucosamine incorporation in normal human epidermal keratinocytes; format: cell-based; details: for % relative to control, glucosamine incorporation / Mean value, radioactive glucosamine incorporated: 72 hours; for incorporation of radioactive glucosamine: result in words
Method: The study is carried out by measuring the incorporation of radioactive glucosamine into the matrix neosynthesized by cultures of normal human epidermal keratinocytes. The incorporation of radioactive [^3H]-glucosamine indicates a specific neosynthesis of total glycosaminoglycans.
The test is carried out on a culture of normal human epidermal keratinocytes in a 96-well plate and cultured in culture medium for 24 hours:
Culture medium: Keratinocytes-SFM supplemented with 0.5 ng/ml epidermal growth factor (EGF), 25 μg/ml pituitary extract, 25 μg/ml gentamycin.
Culture conditions: 37° C.; 5% CO2
The medium was then replaced with culture medium containing or not containing (control) the compound (I) tested or the references 4-nitrophenyl-B-D-xylopyranoside (tested at 300 μM) and 4-methylumbelliferyl-B-D-xylopyranoside (tested at 54 μM) or the solvent control (DMSO at 0.1%), then the cells were incubated for 72 hours with addition of the [^3H]-glucosamine label for the final 24 hours of incubation.
The test was carried out with 3 assays for each compound tested, at the concentrations of 1, 10, 100 and 300 μM.
At the end of the incubation, the glycosaminoglycans were extracted from the cells with a chaotropic buffer. The level of radioactive glucosamine incorporated is measured at the end of the test by adsorption of the anionic molecules on Q-sepharose beads, followed by desorption of the molecules having low and medium anionicity with 6M urea plus 0.2 M NaCl. Once washed, the radioactivity incorporated into the very […] molecules remaining on the support is counted.
The results were evaluated relative to a control constituted of cells which had not been treated with the compound (I).
A positive control (TGFβ at 0.25 ng/ml) known to stimulate GAG synthesis was introduced into the test carried as a positive reference.

GLUT-1 = GLUT-1 expression in normal human keratinocytes by immuno labeling; format: cell-based; details: for GLUT-1 expression vs 100% control: 48 hours, n=3; for expression of the GLUT-1 protein: result in words
Method: Normal human keratinocytes (NHKs) were seeded and cultured in culture medium for 24 hours and then in test medium for a further 24 hours. After incubation, the medium was replaced with test medium containing or not containing (control) the test compounds or the references, and then the cells were incubated for 48 hours. All the experimental conditions were performed in n=3. After incubation, the culture medium was removed and the cells were rinsed, fixed and permeabilized. GLUT-1 expression was determined by immuno labeling.

Structure (SMILES) | % relative to control, glucosamine incorporation ([1]; 54 μM) [%] | Mean value, radioactive glucosamine incorporated ([1]; 54 μM) [cpm] | % relative to control, glucosamine incorporation ([1]; 300 μM) [%] | Mean value, radioactive glucosamine incorporated ([1]; 300 μM) [cpm] | % relative to control, glucosamine incorporation ([1]; 1 μM) [%] | Mean value, radioactive glucosamine incorporated ([1]; 1 μM) [cpm] | % relative to control, glucosamine incorporation ([1]; 10 μM) [%] | Mean value, radioactive glucosamine incorporated ([1]; 10 μM) [cpm] | % relative to control, glucosamine incorporation ([1]; 100 μM) [%] | Mean value, radioactive glucosamine incorporated ([1]; 100 μM) [cpm] | incorporation of radioactive glucosamine ([1]; concentration of 10 μM) | incorporation of radioactive glucosamine ([1]; concentration of 1 μM) | GLUT-1 expression vs 100% control (GLUT-1; compound at 10 μM) | expression of the GLUT-1 protein (GLUT-1) | incorporation of radioactive glucosamine ([1]; concentration of 300 μM) | GLUT-1 expression vs 100% control (GLUT-1; Reference 2 mM metformine) | incorporation of radioactive glucosamine ([1]; concentration of 100 μM)
Cc1cc(=O)oc2cc(O[C@@H]3OC[C@@H](O)[C@H](O)[C@H]3O)ccc12 [4-methylumbelliferyl-β-D-xylopyranoside, 4-methylumbelliferyl-B-D-xylopyranoside, reference compound] | 213 | 32202 |  |  |  |  |  |  |  |  |  |  |  |  |  |  | 
O=[N+]([O-])c1ccc(O[C@@H]2OC[C@@H](O)[C@H](O)[C@H]2O)cc1 [4-nitrophenyl β-D-xylopyranoside, 4-nitrophenyl-B-D-xylopyranoside, reference compound] |  |  | 207 | 31280 |  |  |  |  |  |  |  |  |  |  |  |  | 
CCCNC(=O)C(O)C1O[C@H](CO)[C@@H](O)[C@H](O)[C@H]1O (stereo partly shown) [Compound 2] |  |  | 127 | 16929 | 110 | 14638 | 126 | 16779 | 123 | 16435 | stimulate the incorporation of radioactive glucosamine |  |  |  |  |  | 
CNC(=O)C(O)C1OC[C@@H](O)[C@H](O)[C@H]1O (stereo partly shown) [Compound 5] |  |  | 116 | 15495 | 134 | 17792 | 121 | 16133 | 119 | 15835 |  | stimulate the incorporation of radioactive glucosamine |  |  |  |  | 
CNC(=O)C(O)C1O[C@H](CO)[C@@H](O)[C@H](O)[C@@H]1O (stereo partly shown) [Compound 13] |  |  | 139 | 18804 | 119 | 16090 | 129 | 17340 | 134 | 18139 | stimulate the incorporation of radioactive glucosamine |  |  |  |  |  | 
CNC(=O)C(O)C1O[C@H](CO)[C@@H](O)[C@H](O)[C@H]1O (stereo partly shown) [Compound 1] |  |  | 97 | 16850 | 125 | 21591 | 117 | 20216 | 118 | 20451 |  | stimulate the incorporation of radioactive glucosamine | 159% (p < 0.05) | very significantly stimulated |  |  | 
CNC(=O)C(O)C1O[C@@H](C)[C@H](O)[C@@H](O)[C@H]1O (stereo partly shown) [Compound 9] |  |  | 169 | 22845 | 120 | 16162 | 114 | 15439 | 131 | 17655 |  |  |  |  | stimulates the incorporation of radioactive glucosamine |  | 
CCCCCCCCCCCCCCNC(=O)C(O)C1O[C@H](CO)[C@@H](O)[C@H](O)[C@H]1O (stereo partly shown) [Compound 4] |  |  |  |  |  |  |  |  |  |  |  |  | 142% (p < 0.01) | very significantly stimulated |  |  | 
CNC(=O)C(O)C1O[C@H](CO)[C@@H](OC2O[C@H](CO)[C@H](O)[C@H](O)[C@H]2O)[C@H](O)[C@H]1O (stereo partly shown) [Compound 21] |  |  | 134 | 17429 | 142 | 18416 | 136 | 17611 | 137 | 17796 | stimulates the incorporation of radioactive glucosamine | stimulates the incorporation of radioactive glucosamine |  |  | stimulates the incorporation of radioactive glucosamine |  | 
CN(C)C(=N)N=C(N)N [metformine, reference compound] |  |  |  |  |  |  |  |  |  |  |  |  |  |  |  | 252% (p < 0.01) and 296% (p < 0.001) | 
CNC(=O)C(O)C1O[C@H](CO)[C@H](O)[C@H](O)[C@H]1O (stereo partly shown) [Compound 17] |  |  | 108 | 14498 | 129 | 17387 | 123 | 16614 | 132 | 17861 | stimulates the incorporation of radioactive glucosamine | stimulates the incorporation of radioactive glucosamine |  |  |  |  | stimulates the incorporation of radioactive glucosamine

— patent US11045411B2, “Process for treating keratin materials using amide, acid or ester c-glycoside derivatives, and cosmetic composition containing same” (L'OREAL, priority 2015, dated 2021)
